Data on three molecules can be found in patent US11826403B2, “Target for diabetes treatment and prevention” (UNIVERSITE DE STRASBOURG, priority 2014, dated 2023).

Test [1] deals with human mature adipocytes. Briefly: Acridine orange acidification of adipocytes (time lapse). The class given is cell-based. The source says: While AKT-phosphorylation of TBC1D4 has been known to in some way lead to GLUT4 trafficking, the ultimate GSV-PM fusion step is an insulin regulated non-AKT dependent event that requires osmotic swelling of the GSVs under the action of the vATPase H^+ pump. However, knowledge of the actual signal and mechanism for activation of the H^+ pump by insulin was missing. The inventors tested if ALMS1 inactivation could prevent the acidification of the GSVs and therefore the chemo-osmotic-mediated release of GLUT4 to the PM using the acidotrophic dye, acridine orange, which emits a green fluorescence at low concentration and an orange-red fluorescence at high concentrations in the lysosomes in which acridine orange is protonated and sequestered. In absence of insulin, no orange-red fluorescence was detected in the adipocytes.
(§1) The inventors next tested whether acidifying ALMS1-silenced adipocytes using Nigericin (NIG.), an electroneutral K^+/H^+ exchange ionophore known to cause osmotic swelling of the GSVs would bypass the Alms1-associated defect in GLUT4 fusion and glucose absorption.

In test [2] the test system is human mature adipocytes. Briefly: 2-NBDG absorption in control and ALMS1-silenced mature adipocytes. The class given is cell-based. Conditions: for 2-NBDG absorption: ALMS1-silenced adipocytes, 30 min stimulation. The method, then: (§2) Cell culture. Human white visceral preadipocytes (Catalog #: C-12732; PromoCell) and human mesenchymal stem cells (Catalog #: C-12974; PromoCell) derived from healthy bone marrow were purchased. The preadipocytes were seeded according to manufacturer's protocol and cultured in the Preadipocyte growth medium (Catalog #: C-27410; PromoCell) to confluence. One day before inducing terminal adipogenesis, the cells were infected with specific lentiviral particles consisted of a pool of 3 shRNAs target-specific constructs purchased from Santa Cruz Biotechnology and on the next day, adipogenic differentiation was induced by changing the medium to the Preadipocyte Differentiation Medium (Catalog #: C-27436; PromoCell) for 2 days. After the differentiation phase, the medium was finally changed to the Adipocyte Nutrition medium (Catalog #: C-27438; PromoCell). For the culture without insulin, Adipocyte Basal Medium (Catalog #: C-2431; PromoCell) without insulin was complemented with 5 g/L of deoxyglucose, 8 μg/mL d-Biotin, 400 ng/mL Dexamethasone. For the hMSCs, they were cultured in Mesenchymal Stem Cell Growth Medium (Catalog #: C-28010; PromoCell) to confluence. hMSCs were transfected with specific siRNAs as described above and on the next day adipogenic differentiation was induced by changing the medium to the MSC Adipogenic Differentiation Medium (Catalog #: C28011; Promocell).
Following ALMS1 silencing in 2-week-old mature adipocytes, glucose absorption capacity was assessed using labelled glucose analogue (2-NBDG). In the absence of insulin stimulation, no 2-NBDG uptake could be detected in ALMS1-silenced and control mature adipocytes (FIG. 2A). […] Further to reduced glucose absorption in ALMS1-silenced adipocytes, the inventors observed a reduction in intracellular triglycerides (TG) in these cells a week later (FIGS. 2C-D). […]

The subject of test [3] is ALMS1-silenced adipocytes. Briefly: Immunodetection of GLUT4 / TBC1D4 at the plasma membrane in ALMS1-silenced adipocytes. The class given is cell-based, human. Conditions: NIG-treated ALMS1-silenced adipocytes. The method, then: Western blots and immunofluorescence microscopy. Male Alms1^foz/foz and WT littermates were anaesthetized. The following insulin sensitive tissues: liver, heart, muscle and adipose tissue were harvested and directly placed in RIPA buffer (Tris 50 mM, NaCl 150 mM, 0.1% SDS, 1% Triton-X100) supplemented with Complete mini protease inhibitor cocktail and PhosSTOP phosphatase inhibitor cocktail (Roche, Switzerland). Samples were sonicated and centrifuged […] at 17 000 g, 4° C. […]. Protein concentration assayed with BCA assay (Thermo Fisher Scientific, USA). Cellular proteins from cells were obtained by trichloroacetic acid precipitation and immunoblot analyses were performed using 30-50 μg total protein. Specific antibody binding was visualized using the SuperSignal® West Femto Maximum Sensitivity Substrate (catalog #: Lf145954, Pierce) on a BioRad Versadoc™ Imaging System or ImageQuant LAS 4000 imager (GE Healthcare, UK). Nonspecific proteins stained with Ponceau S were used as loading controls to normalize the signal obtained after specific immunodetection of the protein of interest using the Bio-Rad Quantity One program. For immunofluorescence experiments, the cells were seeded on permanox 8-wells Lab-Tek II Chamber Slide (Catalog #: 177445; NUNC). Cells were treated as indicated. […]

Test [4] deals with human mature adipocytes. Briefly: Electron microscopy of vesicle swelling and fusion with the plasma membrane. The class given is cell-based.
Text: as §1

Test [5] concerns ALMS1-silenced adipocytes. Description: Intracellular triglyceride (TG) filling of ALMS1-silenced adipocytes. The class given is cell-based, human. The conditions noted are these: 24-hours post NIG treatment. The method, then: Fluorescence measurement. The preadipocytes were cultured in a 96 well plate and 12 wells infected with the either ALMS1 shRNA lentiviral particles or CTRL shRNA lentiviral particles and differentiated the next day into mature adipocytes. 3 weeks later, the intracellular triglycerides were stained with AdipoRed staining following the manufacturer's procedure and the fluorescence was measured on a Tecan Infinite 200 quad4 monochromator (Tecan, Lyon, France) at a wavelength of 520 nm. The generated data were then analyzed using the Tecan Magellan Data Analysis software using as blank unstained adipocytes. The inventors next tested whether acidifying ALMS1-silenced adipocytes using Nigericin (NIG.), an electroneutral K^+/H^+ exchange ionophore known to cause osmotic swelling of the GSVs would bypass the Alms1-associated defect in GLUT4 fusion and glucose absorption.

A further test concerns Alms1foz/foz mice. Briefly: Insulin tolerance test (ITT) in Alms1foz/foz mice. The class given is in vivo, mouse. From the text: Six month old obese and young (<60 days old) nonobese Alms1^foz/foz mice and wildtype (WT) littermates were used to investigate what primary metabolic impairment leads Alms1^foz/foz mice to develop T2DM. Six month old Alms1^foz/foz mice were obese with an average body weight of 45.5 g±1.7 g compared to 26.4 g±1.3 g for WT littermates (FIG. 1A) and as previously shown had fasting hyperglycaemia and impaired glucose tolerance with elevated HOMA scores. […] (FIG. 1C). Obesity of Alms1^foz/foz mice was due to severe adipocyte hypertrophy (FIG. 1B) rather than the adipocyte hyperplasia more typically seen in obese BBS mice. To determine what the primary defect was that was causing the glucose intolerance in Alms1^foz/foz mice, young lean Alms1^foz/foz mice were studied to remove the confounding effect of obesity on insulin responsiveness. […]
Biochemical tests. […] Tail blood was obtained and the plasma glucose was determined for each mouse using a glucometer (Optium Xceed, Abbott, USA) and blood glucose test strips (Optium point of care, Abbott, USA) at 0, 15, 30 and 60 min after insulin injection. […] Plasma glucose was determined for each mouse using a glucometer with sampling via tail vein at 0, 15, 30, 60 and 120 min after glucose injection. […] The homeostasis model assessment of insulin resistance (HOMA-IR) index was calculated using individual mouse fasting insulin and fasting glucose levels. […]

A further test concerns mature adipocytes. Description: 2-NBDG glucose absorption in mature adipocytes infected with min-αPKC lentiviral particles. The class given is cell-based, human. Conditions: n=8 per group. The method, then:
as §2, with “Promocell). […]” for “Promocell).”

Setting [6] is: control human mature adipocytes.

`CO[C@@H]1C[C@@H](C[C@H]2CC[C@H](C)[C@H]([C@@H](C)C(=O)O)O2)O[C@]2(O[C@](C)([C@H]3CC[C@@](C)([C@@H]4O[C@@H]([C@H]5O[C@@](O)(CO)[C@H](C)C[C@@H]5C)C[C@@H]4C)O3)C[C@H]2C)[C@@H]1C` [Nigericin]: the “acidification (acridine orange orange-red fluorescence)” value with human mature adipocytes [1] (ALMS1-silenced adipocytes) and with human mature adipocytes [1] (setting [6]) was “rapid acidification” each time. Further, in the test with human mature adipocytes [2], the 2-NBDG absorption result is on record as “restore 2-NBDG absorption in the ALMS1-silenced adipocytes to levels seen in control cells”. Besides, the “GLUT4 fusion with the PM” value in test [3] is “restored GLUT4 fusion with the PM”. For the same molecule, the “vesicular swelling and fusion with the PM” value is “induced vesicular swelling and fusion with the PM” in the test on human mature adipocytes [4] (ALMS1-silenced adipocytes); “induced vesicular swelling and fusion with the PM” in the test on human mature adipocytes [4] (control adipocytes). Also, the TG-filling of adipocytes result in test [5] is on record as “restoration of TG-filling”.

Regarding insulin, the “acidification (acridine orange orange-red fluorescence)” value with human mature adipocytes [1] (ALMS1-silenced adipocytes) is listed as “loss of insulin-mediated acidification”; with human mature adipocytes [1] (setting [6]) it was “rapid appearance of red color”. The 2-NBDG absorption entry in the test on human mature adipocytes [2] is on record as “little effect”. For the same molecule, in the test on human mature adipocytes [2] (control human mature adipocytes, insulin stimulation), the 2-NBDG uptake result is on record as “increased 2-NBDG uptake”. For the same molecule, the “vesicular swelling and fusion with the PM” value was “not in ALMS1-silenced adipocytes” with human mature adipocytes [4] (ALMS1-silenced adipocytes) and “swelling of the vesicles” with human mature adipocytes [4] (control adipocytes). Also, the “insulin responsiveness (ITT)” value with Alms1foz/foz mice (2 months old nonobese Alms1foz/foz males) is recorded as “significantly reduced insulin responsiveness”. The “glycaemia response to insulin administration (ITT)” value with Alms1foz/foz mice (six month old obese Alms1foz/foz mice, doses as high as 20 U/kg) is reported as “unresponsive”.

As to “min-αPKC-FLAG: minimum ALMS1-interacting domain of αPKC (SEQ ID NOs: 14 and 15) with Flag-TAG, expressed from a lentiviral vector”, the “2-NBDG absorption, increase compare to control” value with mature adipocytes (absence of INS, control lentiviral particles as comparator) turned out to be 3.5 times. For the same molecule, the “2-NBDG absorption versus control” value in the test with mature adipocytes (presence of INS) is recorded as “no significant difference”.
